{"source": "patent US8999969B2", "about": "“Anti-RSV compounds” (Gilead Sciences, Inc., priority 2009, dated 2015)", "tested_on": "RSV strain A2", "assay": "in vitro cytoprotection assay against RSV in Hep2 cells", "format": "cell-based", "settings": "human respiratory syncytial virus, HEp-2, 96 h; 1 uM compound; RSV-induced cytopathic effect in Hep2 cells, 4 days, Cell TiterGlo; read-out: RSV % inh. @ 1 uM", "procedure": "Antiviral activity against RSV was determined using an in vitro cytoprotection assay in Hep2 cells. […] The method used is similar to methods previously described in Chapman J et al., “RSV604 a novel inhibitor of respiratory syncytial virus replication,” Antimicrob Agents Chemother, 51(9):3346-53 (2007).\nHep2 cells were obtained from ATCC (Manassas, Va.) and maintained in MEM media supplemented with 10% fetal bovine serum and penicillin/streptomycin. Cells were passaged twice a week and kept at subconfluent stage. Commercial stock of RSV strain A2 (Advanced Biotechnologies, Columbia, Md.) was titered before compound testing to determine the appropriate dilution of the virus stock that generates desirable cytopathic effect in Hep2 cells.\nFor antiviral tests, Hep2 cells were seeded into 96-well plates 24 hours before the assay at a density of 3,000 cells/well. On a separate 96well plate, tested compounds were serially diluted in cell culture media. Eight concentrations in 3-fold serial dilution increments were prepared for each tested compound and 100 uL/well of each dilution was transferred in duplicate onto plates with seeded Hep2 cells. Subsequently, appropriate dilution of virus stock previously determined by titration was prepared in cell culture media and 100 uL/well was added to test plates containing cells and serially diluted compounds. Each plate included three wells of infected untreated cells and three wells of uninfected cells that served as 0% and 100% virus inhibition control, respectively. Following the infection with RSV, testing plates were incubated for 4 days in a tissue culture incubator. After the incubation, RSV-induced cytopathic effect was determined using a Cell TiterGlo reagent (Promega, Madison, Wis.) followed by a luminescence read-out. The percentage inhibition was calculated for each tested concentration relative to the 0% and 100% inhibition controls and the EC50 value for each compound was determined by non-linear regression as a concentration inhibiting the RSV-induced cytopathic effect by 50%. Ribavirin (purchased from Sigma, St. Louis, Mo.) was used as a positive control for antiviral activity."}
{"smiles": "O=C(NC1CC1)c1cc2c(s1)-c1ccccc1N(C(=O)c1ccc(NC(=O)c3cccnc3Br)cc1)CC2", "note": "[Example 1]", "values": [{"measurement": "inhibition at 1 µM", "result": 76, "unit": "%"}]}
{"smiles": "O=C(NC1CC1)c1cc2c(s1)-c1ccccc1N(C(=O)c1ccc(NC(=O)c3ccccc3I)cc1)CC2", "note": "[Example 2]", "values": [{"measurement": "inhibition at 1 µM", "result": 78, "unit": "%"}]}
{"smiles": "O=C(NC1CC1)c1cc2c(s1)-c1ccccc1N(C(=O)c1ccc(NC(=O)c3ccccc3N3CCCC3)cc1)CC2", "note": "[Example 3]", "values": [{"measurement": "inhibition at 1 µM", "result": 100, "unit": "%"}]}
{"smiles": "O=C(NC1CC1)c1cc2c(s1)-c1ccccc1N(C(=O)c1ccc(NC(=O)c3ccncc3Br)cc1)CC2", "note": "[Example 4]", "values": [{"measurement": "inhibition at 1 µM", "result": 78, "unit": "%"}]}
{"smiles": "O=C(NC1CC1)c1cc2c(s1)-c1ccccc1N(C(=O)c1ccc(NC(=O)c3ncccc3Br)cc1)CC2", "note": "[Example 5]", "values": [{"measurement": "inhibition at 1 µM", "result": 79, "unit": "%"}]}
{"smiles": "C[C@@H]1CCCN1c1ncccc1C(=O)Nc1ccc(C(=O)N2CCc3cc(C(=O)NC4CC4)sc3-c3ccccc32)cc1", "note": "[Example 6]", "values": [{"measurement": "inhibition at 1 µM", "result": 100, "unit": "%"}]}
{"smiles": "O=C(NC1CC1)c1cc2c(s1)-c1ccccc1N(C(=O)c1ccc(NC(=O)c3cccnc3N3CC(F)(F)C3)cc1)CC2", "note": "[Example 7]", "values": [{"measurement": "inhibition at 1 µM", "result": 100, "unit": "%"}]}
{"smiles": "O=C(NC1CC1)c1cc2c(s1)-c1ccccc1N(C(=O)c1ccc(NC(=O)c3ccccc3-c3ccc(F)cc3)cc1)CC2", "note": "[Example 8]", "values": [{"measurement": "inhibition at 1 µM", "result": 100, "unit": "%"}]}
{"smiles": "O=C(NC1CC1)c1cc2c(s1)-c1ccccc1N(C(=O)c1ccc(NC(=O)c3cccnc3N3CCC(F)(F)C3)cc1)CC2", "note": "[Example 9]", "values": [{"measurement": "inhibition at 1 µM", "result": 100, "unit": "%"}]}
{"smiles": "O=C(NC1CC1)c1cc2c(s1)-c1ccccc1N(C(=O)c1ccc(NC(=O)c3cccnc3N3CC4(COC4)C3)cc1)CC2", "note": "[Example 10]", "values": [{"measurement": "inhibition at 1 µM", "result": 100, "unit": "%"}]}
{"smiles": "O=C(NC1CC1)c1cc2c(s1)-c1ccccc1N(C(=O)c1ccc(NC(=O)c3ccccc3-c3cccs3)cc1)CC2", "note": "[Example 11]", "values": [{"measurement": "inhibition at 1 µM", "result": 99, "unit": "%"}]}
{"smiles": "O=C(NC1CC1)c1cc2c(s1)-c1ccccc1N(C(=O)c1ccc(NC(=O)c3ccncc3N3CCC3)cc1)CC2", "note": "[Example 12]", "values": [{"measurement": "inhibition at 1 µM", "result": 97, "unit": "%"}]}
{"smiles": "CC(C)c1ccccc1C(=O)Nc1ccc(C(=O)N2CCc3cc(C(=O)NC4CC4)sc3-c3ccccc32)cc1", "note": "[Example 13]", "values": [{"measurement": "inhibition at 1 µM", "result": 99, "unit": "%"}]}
{"smiles": "O=C(NC1CC1)c1cc2c(s1)-c1ccccc1N(C(=O)c1ccc(NC(=O)c3cnccc3C(F)(F)F)cc1)CC2", "note": "[Example 14]", "values": [{"measurement": "inhibition at 1 µM", "result": 100, "unit": "%"}]}
{"smiles": "COc1ccc(C(=O)Nc2ccc(C(=O)N3CCc4cc(C(=O)NC5CC5)sc4-c4ccccc43)cc2)cc1", "note": "[Example 15]", "values": [{"measurement": "inhibition at 1 µM", "result": 97, "unit": "%"}]}
{"smiles": "O=C(NC1CC1)c1cc2c(s1)-c1ccccc1N(C(=O)c1ccc(NC(=O)c3ccccc3Cc3ccccc3)cc1)CC2", "note": "[Example 17]", "values": [{"measurement": "inhibition at 1 µM", "result": 100, "unit": "%"}]}
{"smiles": "O=C(Nc1ccc(C(=O)N2CCc3cc(C(=O)NC4CC4)sc3-c3ccccc32)cc1)c1cc(N2CCC2)ccn1", "note": "[Example 18]", "values": [{"measurement": "inhibition at 1 µM", "result": 98, "unit": "%"}]}
{"smiles": "O=C(NC1CC1)c1cc2c(s1)-c1ccccc1N(C(=O)c1ccc(NC(=O)c3cnccc3N3CCC3)cc1)CC2", "note": "[Example 19]", "values": [{"measurement": "inhibition at 1 µM", "result": 100, "unit": "%"}]}
{"smiles": "Cn1ccc2cccc(C(=O)Nc3ccc(C(=O)N4CCc5cc(C(=O)NC6CC6)sc5-c5ccccc54)cc3)c21", "note": "[Example 20]", "values": [{"measurement": "inhibition at 1 µM", "result": 99, "unit": "%"}]}
{"smiles": "O=C(Nc1ccc(C(=O)N2CCc3cc(C(=O)NC4CC4)sc3-c3ccccc32)cc1)c1ccnc(N2CCC2)c1", "note": "[Example 21]", "values": [{"measurement": "inhibition at 1 µM", "result": 94, "unit": "%"}]}
{"smiles": "Cc1ccsc1C(=O)Nc1ccc(C(=O)N2CCc3cc(C(=O)NC4CC4)sc3-c3ccccc32)cc1", "note": "[Example 22]", "values": [{"measurement": "inhibition at 1 µM", "result": 90, "unit": "%"}]}
{"smiles": "Cc1cc(C(=O)Nc2ccc(C(=O)N3CCc4cc(C(=O)NC5CC5)sc4-c4ccccc43)cc2)n(C(C)(C)C)n1", "note": "[Example 24]", "values": [{"measurement": "inhibition at 1 µM", "result": 78, "unit": "%"}]}
{"smiles": "O=C(NC1CC1)c1cc2c(s1)-c1ccccc1N(C(=O)c1ccc(NC(=O)c3cccc4nccnc34)cc1)CC2", "note": "[Example 25]", "values": [{"measurement": "inhibition at 1 µM", "result": 64, "unit": "%"}]}
{"smiles": "O=C(NC1CC1)c1cc2c(s1)-c1ccccc1N(C(=O)c1ccc(NC(=O)c3cccnc3C(F)(F)F)cc1F)CC2", "note": "[Example 26]", "values": [{"measurement": "inhibition at 1 µM", "result": 47, "unit": "%"}]}
{"smiles": "Cn1nc(C(=O)Nc2ccc(C(=O)N3CCc4cc(C(=O)NC5CC5)sc4-c4ccccc43)cc2)c2ccccc21", "note": "[Example 27]", "values": [{"measurement": "inhibition at 1 µM", "result": 41, "unit": "%"}]}
{"smiles": "Cc1ccccc1C(=O)N1CCC(C(=O)Nc2ccc(C(=O)N3CCc4cc(C(=O)NC5CC5)sc4-c4ccccc43)cc2)CC1", "note": "[Example 28]", "values": [{"measurement": "inhibition at 1 µM", "result": 15, "unit": "%"}]}
{"smiles": "Cn1nccc1C(=O)Nc1ccc(C(=O)N2CCc3cc(C(=O)NC4CC4)sc3-c3ccccc32)cc1", "note": "[Example 29]", "values": [{"measurement": "inhibition at 1 µM", "result": 22, "unit": "%"}]}
{"smiles": "O=C(Nc1ccc(C(=O)N2CCc3cc(C(=O)NC4CC4)sc3-c3ccccc32)cc1)c1ccc(N2CCC2)nc1", "note": "[Example 31]", "values": [{"measurement": "inhibition at 1 µM", "result": 30, "unit": "%"}]}
{"smiles": "O=C(NC1CC1)c1cc2c(s1)-c1ccccc1N(C(=O)c1ccc(NS(=O)(=O)c3ccccc3)cc1)CC2", "note": "[Example 34]", "values": [{"measurement": "inhibition at 1 µM", "result": 90, "unit": "%"}]}
{"smiles": "O=C(NC1CC1)c1cc2c(s1)-c1ccccc1N(C(=O)c1ccc(NC(=O)c3cccnc3N3CCCC3)cc1)CC2", "note": "[Example 37]", "values": [{"measurement": "inhibition at 1 µM", "result": 100, "unit": "%"}]}
{"smiles": "O=C(NC1CC1)c1cc2c(s1)-c1ccccc1N(C(=O)c1ccc(NC(=O)c3cccnc3N3CC[C@@H](F)C3)cc1)CC2", "note": "[Example 38]", "values": [{"measurement": "inhibition at 1 µM", "result": 99, "unit": "%"}]}
{"smiles": "O=C(NC1CC1)c1cc2c(s1)-c1ccccc1N(C(=O)c1ccc(NC(=O)c3cccnc3N3CC[C@H](F)C3)cc1)CC2", "note": "[Example 39]", "values": [{"measurement": "inhibition at 1 µM", "result": 94, "unit": "%"}]}
{"smiles": "C[C@H]1CCCN1c1ncccc1C(=O)Nc1ccc(C(=O)N2CCc3cc(C(=O)NC4CC4)sc3-c3ccccc32)cc1", "note": "[Example 40]", "values": [{"measurement": "inhibition at 1 µM", "result": 98, "unit": "%"}]}
{"smiles": "O=C(NC1CC1)c1cc2c(s1)-c1ccccc1N(C(=O)c1ccc(NC(=O)c3cccnc3N3CCC[C@H]3C(F)(F)F)cc1)CC2", "note": "[Example 42]", "values": [{"measurement": "inhibition at 1 µM", "result": 99, "unit": "%"}]}
{"smiles": "COC[C@@H]1CCCN1c1ncccc1C(=O)Nc1ccc(C(=O)N2CCc3cc(C(=O)NC4CC4)sc3-c3ccccc32)cc1", "note": "[Example 43]", "values": [{"measurement": "inhibition at 1 µM", "result": 99, "unit": "%"}]}
{"smiles": "O=C(NC1CC1)c1cc2c(s1)-c1ccccc1N(C(=O)c1ccc(NC(=O)c3cccnc3N3CC[C@@H](O)C3)cc1)CC2", "note": "[Example 44]", "values": [{"measurement": "inhibition at 1 µM", "result": 77, "unit": "%"}]}
{"smiles": "O=C(NC1CC1)c1cc2c(s1)-c1ccccc1N(C(=O)c1ccc(NC(=O)c3cccnc3N3CC(F)C3)cc1)CC2", "note": "[Example 45]", "values": [{"measurement": "inhibition at 1 µM", "result": 100, "unit": "%"}]}
{"smiles": "O=C(NC1CC1)c1cc2c(s1)-c1ccccc1N(C(=O)c1ccc(NC(=O)c3cccnc3N3CCC3)cc1)CC2", "note": "[Example 46]", "values": [{"measurement": "inhibition at 1 µM", "result": 98, "unit": "%"}]}
{"smiles": "COc1ccc(C(=O)Nc2ccc(C(=O)N3CCc4cc(C(=O)NC5CC5)sc4-c4ccccc43)cc2)c(C)c1", "note": "[Example 47]", "values": [{"measurement": "inhibition at 1 µM", "result": 100, "unit": "%"}]}
{"smiles": "O=C(NCc1cccs1)c1cc2c(s1)-c1ccccc1N(C(=O)c1ccc(NC(=O)c3cccnc3N3CCCC3)cc1)CC2", "note": "[Example 48]", "values": [{"measurement": "inhibition at 1 µM", "result": 100, "unit": "%"}]}
{"smiles": "O=C(Nc1ccc(C(=O)N2CCc3cc(C(=O)N4CCCC4)sc3-c3ccccc32)cc1)c1cccnc1N1CCCC1", "note": "[Example 49]", "values": [{"measurement": "inhibition at 1 µM", "result": 30, "unit": "%"}]}
{"smiles": "O=C(NCc1ccccn1)c1cc2c(s1)-c1ccccc1N(C(=O)c1ccc(NC(=O)c3cccnc3N3CCCC3)cc1)CC2", "note": "[Example 50]", "values": [{"measurement": "inhibition at 1 µM", "result": 100, "unit": "%"}]}
{"smiles": "C[C@H](NC(=O)c1cc2c(s1)-c1ccccc1N(C(=O)c1ccc(NC(=O)c3cccnc3N3CCCC3)cc1)CC2)C(N)=O", "note": "[Example 51]", "values": [{"measurement": "inhibition at 1 µM", "result": 46, "unit": "%"}]}
{"smiles": "O=C(NCc1nccs1)c1cc2c(s1)-c1ccccc1N(C(=O)c1ccc(NC(=O)c3cccnc3N3CCCC3)cc1)CC2", "note": "[Example 52]", "values": [{"measurement": "inhibition at 1 µM", "result": 100, "unit": "%"}]}
{"smiles": "NS(=O)(=O)CCNC(=O)c1cc2c(s1)-c1ccccc1N(C(=O)c1ccc(NC(=O)c3cccnc3N3CCCC3)cc1)CC2", "note": "[Example 53]", "values": [{"measurement": "inhibition at 1 µM", "result": 1, "unit": "%"}]}
{"smiles": "O=C(Nc1ccccn1)c1cc2c(s1)-c1ccccc1N(C(=O)c1ccc(NC(=O)c3cccnc3N3CCCC3)cc1)CC2", "note": "[Example 54]", "values": [{"measurement": "inhibition at 1 µM", "result": 99, "unit": "%"}]}
